Results reported in ChEMBL document CHEMBL4431390, “Dual action Smac mimetics-zinc chelators as pro-apoptotic antitumoral agents” (Bioorg Med Chem Lett, 2016).
Calls of active or inactive are those of the source. The rule behind the calls is not given here.

Columns and labels:
[1] = Metal chelating activity assessed as compound-Zn2+ complex formation at 50 uM after 15 mins by spectrofluorimetric analysis; assay type: functional
[2] = Metal chelating activity assessed as compound-Zn2+ complex formation; assay type: functional
[3] = target: T1, E3 ubiquitin-protein ligase XIAP (Homo sapiens, UniProt P98170); test: Binding affinity to XIAP BIR3 domain in Smac mimetic-sensitive human MDA-MB-231 cells assessed as increase in cleaved caspase-3 expression at 5 uM after 24 hrs by Western blot analysis; assay type: cell-based
[4] = target: T1, E3 ubiquitin-protein ligase XIAP; test: Displacement of FITC-Smac from human recombinant His-tagged XIAP BIR3 domain (241 to 356 residues) expressed in Escherichia coli BL21(DE3) cells after 3 hrs by fluorescence polarization assay
[5] = target: T1, E3 ubiquitin-protein ligase XIAP; test: Binding affinity to XIAP BIR3 domain in Smac mimetic-sensitive human MDA-MB-231 cells assessed as increase in cleaved PARP expression at 5 uM after 24 hrs by Western blot analysis; assay type: cell-based
[6] = target: T1, E3 ubiquitin-protein ligase XIAP; test: Binding affinity to XIAP BIR3 domain in Smac mimetic-sensitive human MDA-MB-231 cells assessed as increase in cellular IAP1 degradation at 5 uM after 24 hrs by Western blot analysis; assay type: cell-based
[7] = target: T1, E3 ubiquitin-protein ligase XIAP; test: Binding affinity to XIAP BIR3 domain in Smac mimetic-resistant human MDA-MB-453 cells assessed as increase in cellular IAP1 degradation at 5 uM after 24 hrs by Western blot analysis; assay type: cell-based
[8] = target: T1, E3 ubiquitin-protein ligase XIAP; test: Binding affinity to XIAP BIR3 domain in Smac mimetic-resistant human MDA-MB-453 cells assessed as increase in cleaved caspase-3 expression at 5 uM after 24 hrs by Western blot analysis; assay type: cell-based
[9] = target: T1, E3 ubiquitin-protein ligase XIAP; test: Binding affinity to XIAP BIR3 domain in Smac mimetic-resistant human MDA-MB-453 cells assessed as increase in cleaved PARP expression at 5 uM after 24 hrs by Western blot analysis; assay type: cell-based
[10] = target: T1, E3 ubiquitin-protein ligase XIAP; test: Binding affinity to XIAP BIR3 domain in Smac mimetic-resistant human BT549 cells assessed as increase in cellular IAP1 degradation at 5 uM after 24 hrs by Western blot analysis
BT-549 [11] = test: Effect on XIAP level in Smac mimetic-resistant human BT549 cells at 5 uM after 24 hrs by Western blot analysis; assay type: functional, cell-based
MDA-MB-231 [12] = test: Cytotoxicity against Smac mimetic-sensitive human MDA-MB-231 cells assessed as growth inhibition after 24 hrs by CellTiter-Glo assay; assay type: functional, cell-based; conditions: MDA-MB-231, 24 h
MDA-MB-453 [13] = test: Cytotoxicity against Smac mimetic-resistant human MDA-MB-453 cells assessed as growth inhibition after 24 hrs by CellTiter-Glo assay; assay type: functional, cell-based; conditions: MDA-MB-453, 24 h
[14] = target: T1, E3 ubiquitin-protein ligase XIAP; test: Binding affinity to XIAP BIR3 domain in Smac mimetic-resistant human BT549 cells assessed as increase in cleaved caspase-3 expression at 5 uM after 24 hrs by Western blot analysis
[15] = target: T1, E3 ubiquitin-protein ligase XIAP; test: Binding affinity to XIAP BIR3 domain in Smac mimetic-resistant human BT549 cells assessed as increase in cleaved PARP expression at 5 uM after 24 hrs by Western blot analysis
MDA-MB-453 [16] = test: Effect on XIAP level in Smac mimetic-resistant human MDA-MB-453 cells at 5 uM after 24 hrs by Western blot analysis; assay type: functional, cell-based
MDA-MB-231 [17] = test: Effect on XIAP level in Smac mimetic-sensitive human MDA-MB-231 cells at 5 uM after 24 hrs by Western blot analysis; assay type: functional, cell-based
BT-549 [18] = test: Cytotoxicity against Smac mimetic-resistant human BT549 cells assessed as growth inhibition after 24 hrs by CellTiter-Glo assay; assay type: functional, cell-based; conditions: BT-549, 24 h

T1 sequence (P98170 whole entry, the tested form may be a part): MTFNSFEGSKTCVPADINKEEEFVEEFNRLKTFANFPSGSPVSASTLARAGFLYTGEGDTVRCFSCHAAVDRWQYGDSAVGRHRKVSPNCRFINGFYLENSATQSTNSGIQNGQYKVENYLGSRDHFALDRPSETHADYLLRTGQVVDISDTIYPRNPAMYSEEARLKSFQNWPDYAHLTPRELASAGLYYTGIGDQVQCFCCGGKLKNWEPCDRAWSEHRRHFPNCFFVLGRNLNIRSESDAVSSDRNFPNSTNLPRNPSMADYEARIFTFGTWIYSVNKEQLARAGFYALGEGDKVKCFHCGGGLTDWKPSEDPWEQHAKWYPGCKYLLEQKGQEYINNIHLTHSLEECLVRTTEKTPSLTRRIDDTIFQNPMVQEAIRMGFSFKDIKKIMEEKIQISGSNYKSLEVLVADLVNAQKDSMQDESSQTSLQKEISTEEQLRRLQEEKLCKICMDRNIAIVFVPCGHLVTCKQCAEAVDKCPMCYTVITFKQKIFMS

SMILES | Activity [1] | Kd [2] | Activity [3] | IC50 [4] | Activity [5] | Activity [6] | Activity [7] | Activity [8] | Activity [9] | Activity [10] | Activity (BT-549 [11]) | IC50 (MDA-MB-231 [12]) | IC50 (MDA-MB-453 [13]) | Activity [14] | Activity [15] | Activity (MDA-MB-453 [16]) | Activity (MDA-MB-231 [17]) | IC50 (BT-549 [18])
c1ccc(CNCc2ccccn2)nc1 | Active | 210 nM | – | – | – | – | – | – | – | – | – | – | – | – | – | – | – | –
CC[C@H](NC)C(=O)N[C@@H]1C(=O)N2[C@@H](CC[C@@H]1CNC(=O)c1ccccc1)CC[C@H]2C(=O)N[C@@H](C(=O)NCCN(Cc1ccccn1)Cc1ccccn1)c1ccccc1 | – | – | inactive | > 10 µM | inactive | inactive | – | – | – | – | – | – | – | – | – | – | – | –
CC[C@H](NC)C(=O)N[C@@H]1C(=O)N2[C@@H](CC[C@@H]1CNC(=O)c1ccccc1)CC[C@H]2C(=O)N[C@H](C(=O)N(Cc1ccccn1)Cc1ccccn1)c1ccccc1 | – | – | Active | 0.37 µM | Active | Active | Active | inactive | inactive | – | – | – | – | – | – | – | – | –
CC[C@H](NC)C(=O)N[C@@H]1C(=O)N2[C@@H](CC[C@@H]1CNC(=O)c1ccccc1)CC[C@H]2C(=O)NC(c1ccccc1)c1ccccc1 | – | – | Active | – | Active | Active | Active | inactive | inactive | Active | inactive | 2.3 µM | > 25 µM | Active | Active | inactive | inactive | > 25 µM
C=CCc1cccc(/C=N/NC(=O)CN2CCN(Cc3ccccc3)CC2)c1O [PAC-1] | – | – | inactive | > 10 µM | inactive | inactive | – | – | – | – | inactive | 4.7 µM | 2 µM | – | – | inactive | inactive | 14.3 µM
C=CCc1cccc(/C=N/NC(=O)[C@@H](NC(=O)[C@@H]2CC[C@@H]3CC[C@H](CCNC(=O)c4ccccc4)[C@H](NC(=O)[C@H](CC)NC)C(=O)N32)c2ccccc2)c1O | – | – | Active | 1.09 µM | Active | Active | Active | inactive | inactive | Active | – | – | – | – | – | – | – | –
CC[C@H](NC)C(=O)N[C@@H]1C(=O)N2[C@@H](CC[C@@H]1CNC(=O)c1ccccc1)CC[C@H]2C(=O)N[C@H](C(=O)NCCN(Cc1ccccn1)Cc1ccccn1)c1ccccc1 | – | – | Active | 0.091 µM | Active | Active | Active | inactive | inactive | Active | – | – | – | Active | Active | – | – | –
c1ccc(CN(CCN(Cc2ccccn2)Cc2ccccn2)Cc2ccccn2)nc1 | – | 3e-07 nM | – | – | – | – | – | – | – | – | – | – | – | – | – | – | – | –
CC[C@H](NC)C(=O)N[C@@H]1C(=O)N2[C@@H](CC[C@@H]1CNC(=O)c1ccccc1)CC[C@H]2C(=O)N[C@@H](C(=O)N(Cc1ccccn1)Cc1ccccn1)c1ccccc1 | – | – | inactive | > 10 µM | inactive | inactive | – | – | – | – | – | – | – | – | – | – | – | –
CC[C@H](NC)C(=O)N[C@@H]1C(=O)N2[C@@H](CC[C@@H]1CNC(=O)c1ccccc1)CC[C@H]2C(=O)N(Cc1ccccn1)Cc1ccccn1 | – | – | inactive | > 10 µM | inactive | inactive | – | – | – | – | – | – | – | – | – | – | – | –
